According to patent US20100297256A1, “METHODS AND COMPOSITIONS FOR INHIBITING INTEGRINS USING TELLURIUM-CONTAINING COMPOUNDS” (priority 2007, published 2010):

Key:
HL-60 cells = assay: AML chemotherapy resistance assay (XTT cell viability), HL-60; assay type: cell-based, human; details: HL-60
Method: (§1) Cell viability was determined using a cell proliferation kit (Roche), which colors viable cells using the tetrazolium salt XTT.
(§2) 2×10^4 per 200 μl cells were seeded in 96-microwell flat bottom plates. After 24 hours, the tested compound(s) (e.g., AS101, ARA-C, DTNB, anti-VLA-4 antibody) was added, and the cells were incubated overnight with the tested compound(s). The XTT solution was then added and the cells were incubated for 4 hours at 37° C. Cell viability was than evaluated by measuring absorbance at 450 nm using a Microplate Spectrophotometer (Spectra MAX Plus, Molecular Devices).

U937 cells [1] = assay: AML chemotherapy resistance assay (XTT cell viability), U937; assay type: cell-based, human; details: for resistance of cells to the agent on fibronectin-coated plates in comparison with VCAM-1- and BSA-coated plates: U937
Method: as §1, §2
The role of VLA protein in fibronectin-induced resistance to chemotherapy was investigated by performing a chemotherapy resistance assay, as described hereinabove, with anti-VLA-4 and anti-VLA-5 antibodies. U937 cells were grown in fibronectin- and BSA-coated plates. Antibodies were added at a concentration of 1 μg/ml.

U937 cells [2] = assay: Fluorescence-based flow cytometry analysis of cell death; parameters: species or system human; details: agent alone
Text: Fluorescence-based flow cytometry was used to measure the effect of tellurium-containing compounds on chemotherapy-induced cell death. Accumulation of cells in the sub-G1 fraction, increased proportion of annexin V-positive and propidium iodide-positive cells and increased caspase activity were each used as indicators of increased cell death, using standard procedures.

Bcl2 = assay: Western blot analysis of Bcl2; assay type: cell-based, human; details: ARA-C alone
Text: The expression of the survival factor Bcl2 was examined via Western blot analysis in U937 cells treated with the chemotherapeutic agent ARA-C.

[3] = system: leukemic cells from AML patients; assay: Sensitization of leukemic cells from AML patients to chemotherapy; assay type: cell-based, human
Method: as §2
Bone marrow samples from patients diagnosed, with AML, but not yet treated, were obtained and grown in vitro. The leukemic cells obtained therefrom were tested for levels of VLA-4 and VLA-5 via fluorescence based cytometry, using FITC (fluorescein isothiocyanate)-conjugated anti-VLA-4 and anti-VLA-5 antibodies, using standard procedures. The cells were grown on both fibronectin and BSA, and the effect of AS101 on chemotherapy resistance was measured.

leukemic cells = assay: Chemotherapy resistance assay with DTNB, leukemic cells; assay type: cell-based
Method: as §2
The role of free thiols in VLA-4/fibronectin-induced resistance to chemotherapy was therefore investigated by performing a chemotherapy resistance assay, as described hereinabove, with the membrane-impermeable thiol blocker DTNB (5 mM).

SMILES	resistance of cells to the agent on fibronectin-coated plates in comparison with VCAM-1- and BSA-coated plates (HL-60 cells)	resistance of cells to the agent on fibronectin-coated plates in comparison with VCAM-1- and BSA-coated plates (U937 cells [1])	percentage of annexin V-positive and propidium iodide-positive cells (U937 cells [2]; U937 on BSA)	percentage of cells in the sub-G1 fraction (U937 cells [2]; U937 on BSA)	percentage of annexin V-positive and propidium iodide-positive cells (U937 cells [2]; U937 on fibronectin)	percentage of cells in the sub-G1 fraction (U937 cells [2]; U937 on fibronectin)	percentage of cells with high caspase-3 activity (U937 cells [2]; U937 on fibronectin)	expression of Bcl2 (Bcl2; U937 on BSA)	expression of Bcl2 (Bcl2; U937 on fibronectin)	viability of cells exposed to ARA-C ([3]; 4 AML patients with low VLA-4 levels, on fibronectin and BSA)	resistance of cells to ARA-C ([3]; 8 AML patients with high VLA-4 levels, on fibronectin)	viability of cells exposed to ARA-C ([3]; Patient A, low VLA-4, on fibronectin and BSA)	resistance of cells to ARA-C ([3]; Patient B, high VLA-4, on fibronectin)	effect on viability of cells exposed to ARA-C, alone or in combination (U937 cells [1]; U937 on BSA)	effect on viability of cells exposed to ARA-C, alone or in combination ([3]; low VLA-4 leukemic cells, fibronectin-coated plates)	sensitization to ARA-C-induced cell death (leukemic cells; 5 mM DTNB, fibronectin-coated plates)	sensitization to ARA-C-induced cell death (leukemic cells; DTNB, BSA-coated plates)
Nc1ccn([C@@H]2O[C@H](CO)[C@@H](O)[C@@H]2O)c(=O)n1 [ARA-C, cytosine arabinoside, reference compound]	more resistant	more resistant	large percentage	large percentage	slight increase	slight increase	little or no effect	reduced expression of Bcl2 considerably	did not decrease expression of Bcl2	decreased effectively	relatively resistant to ARA-C	decreased effectively	relatively resistant to ARA-C				
O=C(O)c1cc(SSc2ccc([N+](=O)[O-])c(C(=O)O)c2)ccc1[N+](=O)[O-] [DTNB, 5,5′-dithiobis-(2-nitrobenzoic acid)]														no effect either alone or in combination	no effect either alone or in combination	sensitizes leukemic cells grown in fibronectin-coated plates to ARA-C-induced cell death	no effect
COc1cccc2c1C(=O)c1c(O)c3c(c(O)c1C2=O)C[C@@](O)(C(C)=O)C[C@@H]3O[C@H]1C[C@H](N)[C@H](O)[C@H](C)O1 [daunorubicin, reference compound]	more resistant	more resistant															
